Laboratory results from ChEMBL document CHEMBL2440076, “New triarylpyrazoles as broad-spectrum anticancer agents: design, synthesis, and biological evaluation” (Eur J Med Chem, 2013).

Tests used:
Assay type in all cases: functional
SF-268 = test: Growth inhibition of human SF268 cells assessed as cell growth at 5X10'-9 M after 48 hrs by sulforhodamine B assay; details: SF-268, 48 h, read-out: Activity
HT-29 [1] = test: Growth inhibition of human HT-29 cells assessed as cell growth at 5X10'-9 M after 48 hrs by sulforhodamine B assay; details: HT-29, 48 h, read-out: Activity
HCT-116 [2] = test: Growth inhibition of human HCT116 cells assessed as cell growth at 5X10'-9 M after 48 hrs by sulforhodamine B assay; details: HCT-116, 48 h, read-out: Activity
Malme-3M = test: Growth inhibition of human MALME-3M cells assessed as cell growth at 5X10'-5 M after 48 hrs by sulforhodamine B assay; details: read-out: Activity
SF-295 = test: Growth inhibition of human SF295 cells assessed as cell growth at 5X10'-5 M after 48 hrs by sulforhodamine B assay; details: SF-295, 48 h, read-out: Activity
HT-29 [3] = test: Growth inhibition of human HT-29 cells assessed as cell growth at 5X10'-5 M after 48 hrs by sulforhodamine B assay; details: HT-29, 48 h, read-out: Activity
A549 [4] = test: Growth inhibition of human A549/ATCC cells assessed as cell growth at 5X10'-5 M after 48 hrs by sulforhodamine B assay; details: A549, 48 h, read-out: Activity
RPMI-8226 = test: Growth inhibition of human RPMI8226 cells assessed as cell growth at 5X10'-5 M after 48 hrs by sulforhodamine B assay; details: RPMI-8226, 48 h, read-out: Activity
NCI-H522 = test: Growth inhibition of human NCI-H522 cells assessed as cell growth at 5X10'-9 M after 48 hrs by sulforhodamine B assay; details: NCI-H522, 48 h, read-out: Activity
HOP-92 = test: Growth inhibition of human HOP92 cells assessed as cell growth at 5X10'-9 M after 48 hrs by sulforhodamine B assay; details: HOP-92, 48 h, read-out: Activity
K562 = test: Growth inhibition of human K562 cells assessed as cell growth at 5X10'-9 M after 48 hrs by sulforhodamine B assay; details: K562, 48 h, read-out: Activity
SF-539 = test: Growth inhibition of human SF539 cells assessed as cell growth at 5X10'-6 M after 48 hrs by sulforhodamine B assay; details: SF-539, 48 h, read-out: Activity
HCT-15 = test: Growth inhibition of human HCT15 cells assessed as cell growth at 5X10'-6 M after 48 hrs by sulforhodamine B assay; details: HCT-15, 48 h, read-out: Activity
U-251 = test: Growth inhibition of human U251 cells assessed as cell growth at 5X10'-7 M after 48 hrs by sulforhodamine B assay; details: U-251, 48 h, read-out: Activity
SW-620 [5] = test: Growth inhibition of human SW620 cells assessed as cell growth at 5X10'-7 M after 48 hrs by sulforhodamine B assay; details: SW-620, 48 h, read-out: Activity
NCI-H460 = test: Growth inhibition of human NCI-H460 cells assessed as cell growth at 5X10'-7 M after 48 hrs by sulforhodamine B assay; details: NCI-H460, 48 h, read-out: Activity
NCI-H322M = test: Growth inhibition of human NCI-H322M cells assessed as cell growth at 5X10'-7 M after 48 hrs by sulforhodamine B assay; details: read-out: Activity
T47D [6] = test: Growth inhibition of human T47D cells assessed as cell growth at 5X10'-8 M after 48 hrs by sulforhodamine B assay; details: read-out: Activity
MDA-MB-231 [7] = test: Growth inhibition of human MDA-MB-231 cells assessed as cell growth at 5X10'-8 M after 48 hrs by sulforhodamine B assay; details: MDA-MB-231, 48 h, read-out: Activity
UO-31 [8] = test: Growth inhibition of human UO31 cells assessed as cell growth at 5X10'-8 M after 48 hrs by sulforhodamine B assay; details: UO-31, 48 h, read-out: Activity
786-0 = test: Growth inhibition of human 786-0 cells assessed as cell growth at 5X10'-8 M after 48 hrs by sulforhodamine B assay; details: 786-0, 48 h, read-out: Activity
SK-OV-3 = test: Growth inhibition of human SKOV3 cells assessed as cell growth at 5X10'-8 M after 48 hrs by sulforhodamine B assay; details: SK-OV-3, 48 h, read-out: Activity
SNB-19 = test: Growth inhibition of human SNB19 cells assessed as cell growth at 5X10'-8 M after 48 hrs by sulforhodamine B assay; details: SNB-19, 48 h, read-out: Activity
SW-620 [9] = test: Growth inhibition of human SW620 cells assessed as cell growth at 5X10'-8 M after 48 hrs by sulforhodamine B assay; details: SW-620, 48 h, read-out: Activity
KM12 = test: Growth inhibition of human KM12 cells assessed as cell growth at 5X10'-8 M after 48 hrs by sulforhodamine B assay; details: KM12, 48 h, read-out: Activity
T47D [10] = test: Growth inhibition of human T47D cells assessed as cell growth at 5X10'-5 M after 48 hrs by sulforhodamine B assay; details: read-out: Activity
UO-31 [11] = test: Growth inhibition of human UO31 cells assessed as cell growth at 5X10'-5 M after 48 hrs by sulforhodamine B assay; details: UO-31, 48 h, read-out: Activity
OVCAR-8 = test: Growth inhibition of human OVCAR8 cells assessed as cell growth at 5X10'-5 M after 48 hrs by sulforhodamine B assay; details: OVCAR-8, 48 h, read-out: Activity
HT-29 [12] = test: Growth inhibition of human HT-29 cells assessed as cell growth at 5X10'-8 M after 48 hrs by sulforhodamine B assay; details: HT-29, 48 h, read-out: Activity
HCT-116 [13] = test: Growth inhibition of human HCT116 cells assessed as cell growth at 5X10'-8 M after 48 hrs by sulforhodamine B assay; details: HCT-116, 48 h, read-out: Activity
A549 [14] = test: Growth inhibition of human A549/ATCC cells assessed as cell growth at 5X10'-8 M after 48 hrs by sulforhodamine B assay; details: A549, 48 h, read-out: Activity
MDA-MB-468 = test: Growth inhibition of human MDA-MB-468 cells assessed as cell growth at 5X10'-9 M after 48 hrs by sulforhodamine B assay; details: MDA-MB-468, 48 h, read-out: Activity
MDA-MB-231 [15] = test: Growth inhibition of human MDA-MB-231 cells assessed as cell growth at 5X10'-9 M after 48 hrs by sulforhodamine B assay; details: MDA-MB-231, 48 h, read-out: Activity
OVCAR-3 = test: Growth inhibition of human OVCAR3 cells assessed as cell growth at 5X10'-9 M after 48 hrs by sulforhodamine B assay; details: OVCAR-3, 48 h, read-out: Activity
SK-MEL-28 = test: Growth inhibition of human SK-MEL-28 cells assessed as cell growth at 5X10'-9 M after 48 hrs by sulforhodamine B assay; details: SK-MEL-28, 48 h, read-out: Activity
MDA-MB-435 = test: Growth inhibition of human MDA-MB-435 cells assessed as cell growth at 5X10'-9 M after 48 hrs by sulforhodamine B assay; details: MDA-MB-435, 48 h, read-out: Activity

SMILES: COc1cc(-c2nn(-c3cccc(NC(=O)Nc4ccc(Cl)c(Cl)c4)c3)cc2-c2ccncc2)ccc1Cl
- growth at 0.005 µM (SF-268): 100%
- growth at 0.005 µM (HT-29 [1]): 102%
- growth at 0.005 µM (HCT-116 [2]): 105%
- growth at 50 µM (Malme-3M): -43%
- growth at 50 µM (SF-295): -42%
- growth at 50 µM (HT-29 [3]): -19%
- growth at 50 µM (A549 [4]): 3%
- growth at 50 µM (RPMI-8226): -11%
- growth at 0.005 µM (NCI-H522): 101%
- growth at 0.005 µM (HOP-92): 75%
- growth at 0.005 µM (K562): 103%
- growth at 5 µM (SF-539): -21%
- growth at 5 µM (HCT-15): 10%
- growth at 0.5 µM (U-251): 72%
- growth at 0.5 µM (SW-620 [5]): 89%
- growth at 0.5 µM (NCI-H460): 74%
- growth at 0.5 µM (NCI-H322M): 89%
- growth at 0.05 µM (T47D [6]): 101%
- growth at 0.05 µM (MDA-MB-231 [7]): 89%
- growth at 0.05 µM (UO-31 [8]): 88%
- growth at 0.05 µM (786-0): 102%
- growth at 0.05 µM (SK-OV-3): 106%
- growth at 0.05 µM (SNB-19): 95%
- growth at 0.05 µM (SW-620 [9]): 102%
- growth at 0.05 µM (KM12): 104%
- growth at 50 µM (T47D [10]): 9%
- growth at 50 µM (UO-31 [11]): -11%
- growth at 50 µM (OVCAR-8): -16%
- growth at 0.05 µM (HT-29 [12]): 102%
- growth at 0.05 µM (HCT-116 [13]): 107%
- growth at 0.05 µM (A549 [14]): 92%
- growth at 0.005 µM (MDA-MB-468): 94%
- growth at 0.005 µM (MDA-MB-231 [15]): 92%
- growth at 0.005 µM (OVCAR-3): 104%
- growth at 0.005 µM (SK-MEL-28): 106%
- growth at 0.005 µM (MDA-MB-435): 97%
